Consider twelve compounds from paper PMC7566295, “Discovery of a Novel Natural Allosteric Inhibitor That Targets NDM-1 Against Escherichia coli” (Frontiers in Pharmacology, 2020).

Where two headings read alike, the source gives them in different places.

Series [1] addresses T1, NDM-1 (Klebsiella pneumoniae, UniProt C7C422).
T1 construct: made in house; host or cells: E. coli BL21
Nature of the series: Enzyme inhibition assay (nitrocefin hydrolysis). Type of series: biochemical. How it is done:
(§1) According to the methodology of Liu et al. the enzyme and nitrocefin were mixed and incubated at 37°C for 10 min. Consequently, absorbance was measured at 492 nm in a microplate reader. The specific calculation method was obtained from the literature ([Liu et al., 2018b]).

Series [2] concerns bacteria carrying carbapenemases. On the set-up: method as in Chiou et al., 2015. The settings on record: ref Chiou et al., 2015; cited from earlier work.
For series [3], the system named is NDM-1. As to conditions: ref Chiou et al., 2015; read-out: IC50 for inhibiting NDM-1 in the hydrolysis of imipenem; cited from earlier work.
In series [4] the test system is E. coli ZC-YN3 (producing NDM-1). Nature of the series: MIC by broth microdilution / checkerboard. The settings on record: Escherichia coli. Type of series: cell-based. A general note: In broth dilution the organism is exposed to a series of concentrations in liquid medium.
In series [5] the test system is E. coli ZC-YN3. Nature of the series: Time-killing assay. The settings on record: after 4 hours. Type of series: cell-based, Escherichia coli.
On the set-up of series [6]: method as in Hecker et al., 2020. As to conditions: rats; ref Hecker et al., 2020; cited from earlier work.
Series [7] concerns E. coli ZC-YN3. The series can be described thus: Growth curves. The class given is cell-based, Escherichia coli. The settings on record: carnosic acid alone, Figure 2A.
The target in series [8] is T2, WT-NDM-1 (Klebsiella pneumoniae, UniProt C7C422).
T2 construct: made in house; host or cells: E. coli BL21
T2 sequence (C7C422 29-270 limits assumed): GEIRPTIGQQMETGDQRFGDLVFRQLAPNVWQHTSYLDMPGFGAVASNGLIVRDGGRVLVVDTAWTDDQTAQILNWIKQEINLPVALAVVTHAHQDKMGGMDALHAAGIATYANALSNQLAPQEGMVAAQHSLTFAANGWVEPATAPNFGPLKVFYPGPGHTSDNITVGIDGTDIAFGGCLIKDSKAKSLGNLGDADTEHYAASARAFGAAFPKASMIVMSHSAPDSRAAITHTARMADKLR
The series can be described thus: Enzyme reaction rate (steady-state kinetics, nitrocefin). The settings on record: WT-NDM-1 treated with carnosic acid. The class given is biochemical, E. coli. How it is done: (§2) The principle of the measurement is mainly by using nitrocefin as an indicator, and its color changes from yellow to red with the increase of hydrolysis. NDM-1 (250 ng/ml) was incubated with various concentrations of carnosic acid in phosphate buffered saline, and then 50 μg/m L of nitrocefin was added to the mixture ([Teng et al., 2019]). The reaction rate was determined by continuously measuring the absorbance at OD492 nm at different times ([Krupyanko, 2009]).

Series [9] has as its target T3, L65A-NDM-1 (Klebsiella pneumoniae, UniProt C7C422, L65A). The description is as above. The class given is biochemical, E. coli. As to conditions: L65A treated with carnosic acid. As for the experimental part: as §2
For series [10], the target named is T4, F46A-NDM-1 (Klebsiella pneumoniae, UniProt C7C422, F46A). Described as above. The class given is biochemical, E. coli. As to conditions: F46A treated with carnosic acid. As for the experimental part:
as §2

The target of series [11] is T5, T94A-NDM-1 (Klebsiella pneumoniae, UniProt C7C422, T94A). The description is as above. The class given is biochemical, E. coli. The settings on record: T94A treated with carnosic acid. As for the experimental part:
as §2

For a further series, the system named is mice. As to conditions: acute toxicity study, ref Wang et al., 2012; cited from earlier work.
Series [12] deals with T2, WT-NDM-1. Nature of the series: Fluorescence-quenching assay. The class given is binding, E. coli. As to conditions: WT-NDM-1, 300 K. How it is done:
(§3) The binding constant (KA) of the binding site of carnosic acid to wild type NDM-1 (WT-NDM-1), F46A-NDM-1, L65A-NDM-1, and T94A-NDM-1 was measured using a fluorescence quenching method. The binding energy was calculated according to the equation: r/Df = nK − rK. This method referred to the previous literature ([Wang J. F. et al., 2015]), using an excitation wavelength of 280 nm and an emission wavelength of 345 nm.

Series [13] deals with T3, L65A-NDM-1. Nature of the series: Fluorescence-quenching assay. The class given is binding, E. coli. The settings on record: L65A-NDM-1, 300 K. As for the experimental part:
as §3

Series [14] deals with T4, F46A-NDM-1. Nature of the series: Fluorescence-quenching assay. Type of series: binding, E. coli. As to conditions: F46A-NDM-1, 300 K. How it is done: as §3
Series [15] concerns the target T5, T94A-NDM-1. The series can be described thus: Fluorescence-quenching assay. The class given is binding, E. coli. The settings on record: T94A-NDM-1, 300 K. How it is done: as §3
Series [16] concerns F46A-NDM-1, L65A-NDM-1, T94A-NDM-1 mutants. The series can be described thus: Enzyme inhibition assay with NDM-1 mutants. Type of series: biochemical, E. coli. As to conditions: Figure 5E.
Description: The coding sequence of the NDM-1 gene were amplified from genomic DNA of E. coli and digested with BamHI and XhoI. Subsequently, it was cloned into pET28a to generate plasmid pET28a-NDM-1. Plasmids encoding F46A-NDM-1, L65A-NDM-1, and T94A-NDM-1 were constructed using a QuikChange site-directed mutagenesis kit. The ligation product was transformed into competent E. coli DH5α cells. All constructed strains were verified by PCR and DNA sequencing ([Ali et al., 2018]). The NDM-1 primer came from the literature ([Teng et al., 2019]), and the other primers were designed in this experiment.
as §1

[17] abbreviates: screening hits, Figure 1A, read-out: IC50 (converted).

T1 sequence (C7C422 29-270, looked up): as the sequence (C7C422 29-270 limits assumed) above
T4 sequence (C7C422 29-270 F46A): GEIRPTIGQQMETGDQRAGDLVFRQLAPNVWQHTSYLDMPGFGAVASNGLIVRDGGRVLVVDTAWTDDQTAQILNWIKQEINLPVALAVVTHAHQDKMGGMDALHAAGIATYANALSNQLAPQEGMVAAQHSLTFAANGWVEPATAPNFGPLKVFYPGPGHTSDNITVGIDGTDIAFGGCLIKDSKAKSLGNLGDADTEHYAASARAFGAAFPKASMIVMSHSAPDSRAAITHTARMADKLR
T5 sequence (C7C422 29-270 T94A): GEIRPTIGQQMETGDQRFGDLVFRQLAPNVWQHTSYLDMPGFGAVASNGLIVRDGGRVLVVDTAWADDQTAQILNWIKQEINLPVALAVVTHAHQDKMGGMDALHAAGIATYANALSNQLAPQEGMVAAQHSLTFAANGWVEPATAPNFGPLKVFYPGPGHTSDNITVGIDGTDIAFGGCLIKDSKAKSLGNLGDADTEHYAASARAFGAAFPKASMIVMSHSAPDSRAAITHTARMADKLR
T3 sequence (C7C422 29-270 L65A): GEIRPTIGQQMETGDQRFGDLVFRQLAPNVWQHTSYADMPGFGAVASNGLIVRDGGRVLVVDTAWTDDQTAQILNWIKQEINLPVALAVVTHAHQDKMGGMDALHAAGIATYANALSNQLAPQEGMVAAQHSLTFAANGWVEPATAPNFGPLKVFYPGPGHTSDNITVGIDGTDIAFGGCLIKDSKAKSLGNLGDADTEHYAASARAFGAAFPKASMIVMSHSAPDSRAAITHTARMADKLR

As to `O=C(/C=C/c1ccc(O)cc1)c1ccc(O)cc1O` [6'-Deoxychalcone], the IC50 against NDM-1 [1] was 163 µM.
On the same count and under the same terms, the result for `COc1cc(O)cc2c1C(=O)C[C@@H](c1ccccc1)O2` [Alpinetin] reads 122 µM.
Regarding `C[N+](C)(C)CC(=O)O` [Betaine], at NDM-1 [1] (setting [17]), the IC50 was 355 µM.
Consider `O=C(O)/C=C/c1ccccc1` [Cinnamic Acid], for which the IC50 on NDM-1 [1] is 225 µM.
On to `C[C@H](CS)C(=O)N1CCC[C@@H]1C(=O)O` [D-captopril], for which the “effect on bacteria carrying carbapenemases” value in series [2] is on record as “no effect”. Besides, the IC50 in the series with NDM-1 [3] is […].
For the compound `C[C@H](CS)C(=O)N1CCC[C@H]1C(=O)O` [L-captopril], in [2], the “effect on bacteria carrying carbapenemases” value was “no effect”. The IC50 in the series on NDM-1 [3] is […].
As to `CCCCC/C=C\C/C=C\CCCCCCCC(=O)O` [Linolate], the half-maximal inhibitory concentration (IC50) on NDM-1 [1] (setting [17]) was 218 µM.
For the compound `O=C1C[C@@H](c2ccc(O[C@@H]3O[C@H](CO)[C@@H](O)[C@H](O)[C@H]3O)cc2)Oc2cc(O)ccc21` [Liquiritin], at NDM-1 [1], half-maximal inhibition (IC50) was put at 130 µM.
Regarding `C[C@@H](O)[C@H]1C(=O)N2C(C(=O)O)=C(S[C@@H]3CN[C@H](C(=O)N(C)C)C3)[C@H](C)[C@H]12` [Meropenem, meropenem, reference compound], the MIC in [4] (meropenem alone, read-out: MIC of meropenem) worked out at 16 µg/mL. In addition, the “inhibitory effect on E. coli (time-kill)” value in the series on E. coli ZC-YN3 [5] is reported as “weakened”.
With `O=C(O)c1c(F)ccc2c1OB(O)[C@@H]1C[C@H]21` [QPX7728], in series [6], the oral bioavailability result was “good oral bioavailability”.
`O=c1c(-c2ccc(O[C@@H]3O[C@H](CO)[C@@H](O)[C@H](O)[C@H]3O)cc2)coc2cc(O)cc(O)c12` [Sophoricoside]: the IC50 at NDM-1 [1] (setting [17]) was 152 µM.
Regarding `CC(C)c1cc2c(c(O)c1O)[C@@]1(C(=O)O)CCCC(C)(C)[C@@H]1CC2` [carnosic acid], the MIC in series [4] is greater than 32 µg/mL. Moreover, the effect on growth entry in the series on E. coli ZC-YN3 [7] is on record as “nor inhibitory effect on the growth of E. coli ZC-YN3”. For the same compound, the IC50 on NDM-1 [1] stood at 27.1 µM. In addition, the “decrease of protein activity” value on NDM-1 [1] (8 μg/ml carnosic acid) turned out to be 48.56%. Moreover, the “activity of the protein (remaining)” value on NDM-1 [1] (32 μg/ml carnosic acid) was 19.85%. Besides, the “hydrolysis reaction rate (slope of absorbance at 492 nm vs time)” value is 0.00742 on WT-NDM-1 [8], 0.02164 at L65A-NDM-1 [9], 0.0225 at F46A-NDM-1 [10] and 0.02277 on T94A-NDM-1 [11]. Besides, the oral lethal dose result in the series with mice was “greater than 7000 mg/kg”. The “Binding constants K” value on WT-NDM-1 [12] came to 0.4564 mL/µg; at L65A-NDM-1 [13], 0.336 mL/µg; on F46A-NDM-1 [14] it was 0.1272 mL/µg; at T94A-NDM-1 [15], 0.3291 mL/µg. The “effect on the activity of mutants” value in series [16] is “no obvious effect on the activity of mutants”.

Broadly, the IC50 is the concentration at which inhibition is half-maximal. What is called MIC is the smallest concentration in the dilution series that meets the test's criterion for growth inhibition.
